According to PubChem BioAssay (NCI):
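Following 48 hours of exposure in 96-well plates, responses at five concentrations were used to interpolate endpoints linearly. At the GI50, growth is halved. TGI denotes the concentration required for complete inhibition of growth.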

Tests used:
Experiment in all cases: inhibition of tumour cell growth, NCI panel, 48 h
PC-3 prostate = tested on: PC-3 prostate
HL-60(TB) leukemia = tested on: HL-60(TB) leukemia
HOP-62 NSCLC = tested on: HOP-62 NSCLC
CAKI-1 renal = tested on: CAKI-1 renal
NCI/ADR-RES ovarian = tested on: NCI/ADR-RES ovarian
EKVX NSCLC = tested on: EKVX NSCLC
MALME-3M melanoma = tested on: MALME-3M melanoma
DU-145 prostate = tested on: DU-145 prostate
LOX IMVI melanoma = tested on: LOX IMVI melanoma
MDA-MB-435 = tested on: MDA-MB-435
HCT-116 colon = tested on: HCT-116 colon
HOP-92 NSCLC = tested on: HOP-92 NSCLC
SF-539 CNS = tested on: SF-539 CNS
HS 578T breast = tested on: HS 578T breast
U251 CNS = tested on: U251 CNS
OVCAR-4 ovarian = tested on: OVCAR-4 ovarian
UACC-62 melanoma = tested on: UACC-62 melanoma
HCT-15 colon = tested on: HCT-15 colon
786-0 renal = tested on: 786-0 renal
KM12 colon = tested on: KM12 colon
SK-MEL-5 melanoma = tested on: SK-MEL-5 melanoma
SK-OV-3 ovarian = tested on: SK-OV-3 ovarian
NCI-H23 lung = tested on: NCI-H23 lung
OVCAR-3 ovarian = tested on: OVCAR-3 ovarian
HT29 colon = tested on: HT29 colon
K-562 leukemia = tested on: K-562 leukemia
UACC-257 melanoma = tested on: UACC-257 melanoma
MOLT-4 leukemia = tested on: MOLT-4 leukemia
SNB-19 CNS = tested on: SNB-19 CNS
BT-549 breast = tested on: BT-549 breast
CCRF-CEM leukemia = tested on: CCRF-CEM leukemia
SR leukemia = tested on: SR leukemia
M14 melanoma = tested on: M14 melanoma
NCI-H460 lung = tested on: NCI-H460 lung
TK-10 renal = tested on: TK-10 renal
NCI-H226 lung = tested on: NCI-H226 lung
SK-MEL-2 melanoma = tested on: SK-MEL-2 melanoma
UO-31 renal = tested on: UO-31 renal
SNB-75 CNS = tested on: SNB-75 CNS
T-47D breast = tested on: T-47D breast
RPMI-8226 leukemia = tested on: RPMI-8226 leukemia
NCI-H522 lung = tested on: NCI-H522 lung
IGROV1 ovarian = tested on: IGROV1 ovarian
HCC-2998 colon = tested on: HCC-2998 colon
A549 NSCLC = tested on: A549 NSCLC
OVCAR-5 ovarian = tested on: OVCAR-5 ovarian
SF-295 CNS = tested on: SF-295 CNS
SF-268 CNS = tested on: SF-268 CNS
MDA-MB-231 breast = tested on: MDA-MB-231 breast
SN12C renal = tested on: SN12C renal
A498 renal = tested on: A498 renal
OVCAR-8 ovarian = tested on: OVCAR-8 ovarian
COLO 205 colon = tested on: COLO 205 colon
ACHN renal = tested on: ACHN renal
MCF7 breast = tested on: MCF7 breast
SW-620 colon = tested on: SW-620 colon
RXF 393 renal = tested on: RXF 393 renal
SK-MEL-28 melanoma = tested on: SK-MEL-28 melanoma

CC1(C)CC[C@H](Nc2ncc(C(F)(F)F)c(-c3c[nH]c4c(P(C)(C)=O)c(C#N)ccc34)n2)CN1
GI50 (PC-3 prostate): 0.0396 µM | TGI (PC-3 prostate): 43.3 µM | GI50 (HL-60(TB) leukemia): < 0.01 µM | TGI (HL-60(TB) leukemia): 2.37 µM | GI50 (HOP-62 NSCLC): 0.0132 µM | TGI (HOP-62 NSCLC): 6.69 µM | GI50 (CAKI-1 renal): 0.0361 µM | TGI (CAKI-1 renal): > 37.6 µM | GI50 (NCI/ADR-RES ovarian): 3.18 µM | TGI (NCI/ADR-RES ovarian): 27.6 µM | GI50 (EKVX NSCLC): < 0.0113 µM | TGI (EKVX NSCLC): 9.27 µM | GI50 (MALME-3M melanoma): < 0.0128 µM | TGI (MALME-3M melanoma): 13 µM | GI50 (DU-145 prostate): 0.52 µM | TGI (DU-145 prostate): > 36.4 µM | GI50 (LOX IMVI melanoma): 0.0297 µM | TGI (LOX IMVI melanoma): 7.44 µM | GI50 (MDA-MB-435): 0.038 µM | TGI (MDA-MB-435): 12 µM | GI50 (HCT-116 colon): < 0.01 µM | TGI (HCT-116 colon): 12.1 µM | GI50 (HOP-92 NSCLC): 0.345 µM | TGI (HOP-92 NSCLC): 28.8 µM | GI50 (SF-539 CNS): 0.245 µM | TGI (SF-539 CNS): 4.73 µM | GI50 (HS 578T breast): 0.736 µM | TGI (HS 578T breast): 10.6 µM | GI50 (U251 CNS): 0.0771 µM | TGI (U251 CNS): 23.7 µM | GI50 (OVCAR-4 ovarian): 0.365 µM | TGI (OVCAR-4 ovarian): 6.89 µM | GI50 (UACC-62 melanoma): < 0.01 µM | TGI (UACC-62 melanoma): 2.19 µM | GI50 (HCT-15 colon): 0.21 µM | TGI (HCT-15 colon): 15.1 µM | GI50 (786-0 renal): 0.201 µM | TGI (786-0 renal): 19.2 µM | GI50 (KM12 colon): 0.19 µM | TGI (KM12 colon): 13.2 µM | GI50 (SK-MEL-5 melanoma): 0.0666 µM | TGI (SK-MEL-5 melanoma): 2.27 µM | GI50 (SK-OV-3 ovarian): 1.07 µM | TGI (SK-OV-3 ovarian): 5.46 µM | GI50 (NCI-H23 lung): < 0.01 µM | TGI (NCI-H23 lung): 3.44 µM | GI50 (OVCAR-3 ovarian): < 0.0214 µM | TGI (OVCAR-3 ovarian): 4.29 µM | GI50 (HT29 colon): < 0.0259 µM | TGI (HT29 colon): > 27.7 µM | GI50 (K-562 leukemia): 0.0219 µM | TGI (K-562 leukemia): > 45.9 µM | GI50 (UACC-257 melanoma): < 0.01 µM | TGI (UACC-257 melanoma): 6.83 µM | GI50 (MOLT-4 leukemia): 0.214 µM | TGI (MOLT-4 leukemia): > 23.2 µM | GI50 (SNB-19 CNS): 0.0439 µM | TGI (SNB-19 CNS): > 54.3 µM | GI50 (BT-549 breast): 0.0758 µM | TGI (BT-549 breast): 3.67 µM | GI50 (CCRF-CEM leukemia): 0.143 µM | TGI (CCRF-CEM leukemia): > 32 µM | GI50 (SR leukemia): < 0.01 µM | GI50 (M14 melanoma): 0.0759 µM | TGI (M14 melanoma): 6.69 µM | GI50 (NCI-H460 lung): < 0.01 µM | TGI (NCI-H460 lung): 11.5 µM | GI50 (TK-10 renal): 0.711 µM | TGI (TK-10 renal): > 53.9 µM | GI50 (NCI-H226 lung): 0.165 µM | TGI (NCI-H226 lung): 6.78 µM | GI50 (SK-MEL-2 melanoma): 0.283 µM | TGI (SK-MEL-2 melanoma): 6.9 µM | GI50 (UO-31 renal): 0.377 µM | TGI (UO-31 renal): 5.11 µM | GI50 (SNB-75 CNS): 0.774 µM | TGI (SNB-75 CNS): 10.6 µM | GI50 (T-47D breast): 0.0255 µM | TGI (T-47D breast): 5.84 µM | GI50 (RPMI-8226 leukemia): < 0.01 µM | TGI (RPMI-8226 leukemia): 3.43 µM | TGI (NCI-H522 lung): 14.4 µM | GI50 (IGROV1 ovarian): 0.0231 µM | TGI (IGROV1 ovarian): 14.5 µM | GI50 (HCC-2998 colon): 0.0375 µM | TGI (HCC-2998 colon): 11.6 µM | GI50 (A549 NSCLC): 0.184 µM | TGI (A549 NSCLC): 35.4 µM | GI50 (OVCAR-5 ovarian): 0.144 µM | TGI (OVCAR-5 ovarian): > 37.7 µM | GI50 (SF-295 CNS): 0.0267 µM | TGI (SF-295 CNS): 13.5 µM | GI50 (SF-268 CNS): 1.17 µM | TGI (SF-268 CNS): 12.9 µM | GI50 (MDA-MB-231 breast): 0.4 µM | TGI (MDA-MB-231 breast): 9.08 µM | GI50 (SN12C renal): 0.141 µM | TGI (SN12C renal): 32.2 µM | GI50 (A498 renal): 1.76 µM | TGI (A498 renal): 8.85 µM | GI50 (OVCAR-8 ovarian): 0.469 µM | TGI (OVCAR-8 ovarian): > 50.2 µM | GI50 (COLO 205 colon): < 0.01 µM | TGI (COLO 205 colon): 0.773 µM | GI50 (ACHN renal): 0.0721 µM | TGI (ACHN renal): 9.27 µM | GI50 (MCF7 breast): < 0.0137 µM | TGI (MCF7 breast): 10.2 µM | GI50 (SW-620 colon): 0.0225 µM | TGI (SW-620 colon): 13.2 µM | GI50 (RXF 393 renal): 0.777 µM | TGI (RXF 393 renal): 4 µM | GI50 (SK-MEL-28 melanoma): < 0.01 µM | TGI (SK-MEL-28 melanoma): 9.2 µM
